According to patent publication EP4488278A1, “SUBSTITUTED PYRIDYL/PYRAZINYL DIHYDROPYRROLOTRIAZINE COMPOUNDS FOR COMBATTING PHYTOPATH-OGENIC FUNGI” (BASF SE, priority 2023, dated 2025):

Experiments:
Botrytis cinerea [1] = experiment: Microtest: activity against the grey mold Botrytis cinerea in the microtiterplate test; format: cell-based; details: 31 ppm active substance; absorption at 405 nm 7 days after inoculation, 18°C; relative to active compound-free control (100%)
Description: The active compounds were formulated separately as a stock solution having a concentration of 10000 ppm in dimethyl sulfoxide.
The stock solutions were mixed according to the ratio, pipetted onto a micro titer plate (MTP) and diluted with water to the stated concentrations. A spore suspension of Botrci cinerea in an aqueous biomalt or yeast-bactopeptone-sodiumacetate solution was then added. The plates were placed in a water vapor-saturated chamber at a temperature of 18°C. Using an absorption photometer, the MTPs were measured at 405 nm 7 days after the inoculation.
The measured parameters were compared to the growth of the active compound-free control variant (100%) and the fungus-free blank value to determine the relative growth in % of the pathogens in the respective active compounds.

Botrytis cinerea [2] = experiment: Green house: preventative fungicidal control of Botrytis cinerea on leaves of green pepper; format: in vivo; details: 250 ppm active substance, green pepper plants sprayed to run-off one day before inoculation; assessed visually as % diseased leaf area after 5 days at 22 to 24°C; untreated plants 90% infected
Description: The compound was dissolved in a mixture of acetone and/or dimethylsulfoxide and the wetting agent/emulsifier Wettol, which is based on ethoxylated alkylphenoles, in a ratio (volume) solvent-emulsifier of 99 to 1 to give a total volume of 5 ml. Subsequently, water was added to total volume of 100 ml. This stock solution was then diluted with the described solvent-emulsifier-water mixture to the final concentration given in the table below. Young seedlings of green pepper were grown in pots to the 4 to 5 leaf stage. These plants were sprayed to run-off with previously described spray solution, containing the concentration of active ingredient or mixture mentioned in the table below. The next day the plants were inoculated with an aqueous biomalt or DOB solution containing the spore suspension of Botrytis cinerea. Then the plants were immediately transferred to a humid chamber. After 5 days at 22 to 24°C and a saturated relative humidity, the extent of fungal attack on the leaves was visually assessed as % diseased leaf area.

SMILES: Cc1cc(C2=NC(C)(C)N(C)n3cccc32)cnc1C(F)F [Ex-1, 4-(6-(difluoromethyl)-5-methylpyridin-3-yl)-1,2,2-trimethyl-1,2-dihydropyrrolo[2,1-f][1,2,4]triazine]
- growth of the pathogen (Botrytis cinerea [1]): 0%
- growth of the pathogen (Botrytis cinerea [2]): at most 7%

SMILES: Cc1cc(C2=NC(C)(C)Nn3cccc32)cnc1C(F)F [Ex-2, 4-(6-(difluoromethyl)-5-methylpyridin-3-yl)-2,2-dimethyl-1,2-dihydropyrrolo[2,1-f][1,2,4]triazine]
- growth of the pathogen (Botrytis cinerea [1]): 0%
